Results on 3 compounds are retold here after article PMC11783427, “Enhanced dynamic coupling in a nuclear receptor underlies ligand activity” (The Journal of Biological Chemistry, 2024).

Like-named read-outs stand apart in the source and are kept apart here.

Test [1] deals with FXR. Particulars: cited from earlier work.
Test [2] deals with T1, FXR (Homo sapiens, UniProt Q96RI1).
T1 construct: Luciferase with FL-FXR and Coregulators; expressed in transfected cells; host or cells: HeLa cells
T1 sequence (Q96RI1 1-476 isoform Q96RI1-1): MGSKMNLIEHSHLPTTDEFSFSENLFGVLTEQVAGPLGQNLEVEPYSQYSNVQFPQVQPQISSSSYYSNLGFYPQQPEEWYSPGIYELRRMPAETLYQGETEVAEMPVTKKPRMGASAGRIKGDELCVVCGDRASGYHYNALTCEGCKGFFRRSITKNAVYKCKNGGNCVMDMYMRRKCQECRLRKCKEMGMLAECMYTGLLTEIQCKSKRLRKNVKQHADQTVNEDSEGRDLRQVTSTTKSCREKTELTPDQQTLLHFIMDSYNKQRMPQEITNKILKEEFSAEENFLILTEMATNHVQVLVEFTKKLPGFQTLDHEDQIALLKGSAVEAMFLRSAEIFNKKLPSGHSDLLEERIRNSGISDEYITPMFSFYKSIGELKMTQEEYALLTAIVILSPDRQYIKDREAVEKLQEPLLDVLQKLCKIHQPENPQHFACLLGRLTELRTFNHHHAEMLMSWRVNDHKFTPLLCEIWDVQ
T1 sequence (P19793 1-462 partner): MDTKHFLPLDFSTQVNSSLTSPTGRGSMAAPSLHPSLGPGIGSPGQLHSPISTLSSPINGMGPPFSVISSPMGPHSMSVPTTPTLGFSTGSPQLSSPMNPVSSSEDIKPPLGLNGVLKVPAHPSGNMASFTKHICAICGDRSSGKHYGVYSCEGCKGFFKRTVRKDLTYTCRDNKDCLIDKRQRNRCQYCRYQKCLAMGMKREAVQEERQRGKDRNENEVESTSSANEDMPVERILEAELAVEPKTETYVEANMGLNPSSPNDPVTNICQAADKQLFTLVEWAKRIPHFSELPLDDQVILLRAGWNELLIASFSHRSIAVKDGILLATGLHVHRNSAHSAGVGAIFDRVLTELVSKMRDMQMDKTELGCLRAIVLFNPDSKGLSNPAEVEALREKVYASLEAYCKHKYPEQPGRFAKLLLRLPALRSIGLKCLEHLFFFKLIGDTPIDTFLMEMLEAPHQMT
The test can be described thus: Dual-luciferase reporter assay of FXR transcription (IR-1-CON-luc and PLTP-luc) in HeLa cells. It counts as cell-based.

Procedure: HeLa cells were obtained from American Type Culture Collection, and the cells were grown in culture in minimum essential medium alpha (Thermo Fisher Scientific) supplemented with 10% FBS and 1% L-glutamine at 37 °C with humidified atmosphere at 5% CO2.
Cells were seeded 10,000 cells/well in a 96-well, clear flat, bottom cell culture plate. Cotransfection was performed with equal amount of 5 ng of each expression plasmids pcDNA3.1-FXR and pcDNA3.1-RXR, along with 50 ng of the pGL4.31-derived plasmids containing the FXRE and 1 ng of renilla luciferase (pRL-CMV). […]
At 24 h after transfection, cells were stimulated with DMSO (final concentration of 0.71%) or test ligands at final concentrations 10 μM or 100 μM, as appropriate. After another 24 h incubation, Firefly luciferase activity and Renilla luciferase activity were measured using the Dual-Glo kit (Promega) using a SpectraMax iD5 plate reader. […]
Data for luciferase assays are presented as the mean ± standard SD of at least three independent replicates. p values were calculated using two-way ANOVA with Dunnett’s multiple comparisons test to access the differences between specific pairs of means. For coregulator mean comparisons, p values were calculated using one-way ANOVA with Sidaks’s multiple comparisons. […]

For the compound `CC(C)c1onc(-c2c(Cl)cccc2Cl)c1COc1ccc(/C=C/c2cccc(C(=O)O)c2)c(Cl)c1` [GW4064], the EC50 in test [1] (synthetic FXR agonist) was […].
Turning to `C[C@H](CCC(=O)O)[C@H]1CC[C@H]2[C@@H]3CC[C@@H]4C[C@H](O)CC[C@]4(C)[C@H]3CC[C@]12C` [LCA, lithocholic acid], the “luciferase activity (efficacy of FXR transcriptional activation)” value in test [2] (100 μM ligand, compared with 10 μM OCA, Fig. S1A) is “falls short of 10 μM OCA levels”. In addition, the EC50 in test [1] (weak agonist of FXR) was […].
On to `CC[C@H]1[C@@H](O)[C@@H]2[C@H](CC[C@]3(C)[C@@H]([C@H](C)CCC(=O)O)CC[C@@H]23)[C@@]2(C)CC[C@@H](O)C[C@@H]12` [OCA, obeticholic acid], for which the “luciferase activity (efficacy of FXR transcriptional activation)” value in test [2] (10 μM ligand, both IR-1-CON-luc and PLTP-luc, compared among OCA, CDCA, LCA) is reported as “highest efficacy”. Besides, in test [1] (FXR), the 50% effective concentration (EC50) is […]. In test [1] (relative to CDCA), the “increase in potency over the endogenous agonist CDCA in FXR activation” value is recorded as […].
